{"source": "paper PMC9738620", "about": "“Computer- and NMR-Aided Design of Small-Molecule Inhibitors of the Hub1 Protein” (Molecules, 2022)", "molecules": {"B1": {"name": "Hub1 1-73 (protein)", "chain": "MIEVVCNDRLGKKVRVKCNTDDTIGDLKKLIAAQTGTRWNKIVLKKWYTIFKDHVSLGDYEIHDGMNLELYYQ"}}, "key": {"Hub1 [1]": {"target": "T1, Hub1 (Saccharomyces cerevisiae, UniProt Q6Q546)", "T1 sequence (Q6Q546 whole entry)": "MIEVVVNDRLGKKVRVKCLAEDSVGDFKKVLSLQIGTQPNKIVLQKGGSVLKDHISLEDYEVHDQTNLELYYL", "experiment": "biochemical", "method": "Hub1 buffered in 20 mM HEPES, pH 7.5, 100 mM NaCl, 0.05% Tween-20 was labeled using His-Tag Labelling Kit RED-tris-NTA 2nd generation (MO-L018, NanoTemper, Munich, Germany), according to the manufacturer’s protocol. […] The final concentration of Hub1 was 50 nM. All measurements were calculated on a Monolith NT.115 instrument (NanoTemper, Munich, Germany) using the standard capillaries at the excitation power of 60% and the medium MST power in duplicates. The results were analyzed in GraphPad Prism software (GraphPad Prism version 8.0.0 for Windows, GraphPad Software, San Diego, CA, USA)."}, "Hub1 [2]": {"target": "T1, Hub1", "method": "The NMR measurements were carried out at 300 K on an ultrashielded 600 MHz Bruker AVANCE 3 (Bruker Corporation, Billerica, MA, USA) spectrometer equipped with a liquid nitrogen cryogenic system. Uniform ^15N isotope labeling was achieved by the expression of the protein in the M9 minimal media containing ^15NH4Cl as the sole nitrogen source. The NMR buffer for ^15N-labeled protein was PBS pH 7.4 with 5 mM DTT (dithiothreitol). To provide a lock signal, 10% (v/v) of D2O was added to the samples. Water suppression was carried out using the WATERGATE sequence. Stock solutions of the inhibitors used for titration were prepared in DMSO-d6. The binding of small molecule fragments towards Hub1 was measured with the 2D SOFAST-HMQC spectra of the ^15N-labeled Hub1 recombinant protein in 3-mm NMR capillaries. For the preliminary screening, the mixture of three compounds was added in a molar ratio compound to protein 1:10. Then the ^1H and SOFAST-HMQC spectrum was recorded and compared with the reference spectrum of the protein Hub1 titrated with a suitable amount of DMSO. When any activity occurred, all compounds which were in the mixture were tested one by one. The individual spectra were recorded in 10-fold excess of the inhibitor either by ^1H NMR or SOFAST-HMQC. […] The spectra were processed with TopSpin 3.2 software (Bruker Corporation, Billerica, MA, USA)."}, "Snu66 peptide-14": {"target": "T2, Snu66 peptide-14 (Saccharomyces cerevisiae)", "T2 chain": "TNEIREKLGM", "experiment": "MST"}}, "note": "Ends that are not written are not given here."}
{"molecule": "IREKLGM [Peptide-11]", "values": [{"measurement": "binding to Hub1 by MST (in words)", "setting": "Hub1 [1]; MST, labeled Hub1 50 nM, peptide […] to 250 µM, pH 7.5, duplicates", "value": "no significant binding events"}, {"measurement": "changes in chemical shifts (in words)", "setting": "Hub1 [2]; 1H NMR, Hub1:peptide ratio 1:1 to 1:10, 300 K", "value": "changes in chemical shifts in the aliphatic (δ = 0.04 ppm) and aromatic (δ = 6.5 ppm) regions"}, {"measurement": "chemical shift changes, aliphatic region (δ)", "setting": "Hub1 [2]; 1H NMR, Hub1:peptide ratio 1:1 to 1:10, 300 K, aliphatic region", "value": 0.04, "unit": "ppm"}, {"measurement": "buffer pH after titration", "setting": "Hub1 [2]; after titration of Hub1 with peptide", "value": 6.7}]}
{"molecule": "TNEIREKLGM [Peptide-14]", "values": [{"measurement": "Kd", "setting": "Hub1 [1]", "value": "14 ± 8.3", "unit": "µM"}]}
{"molecule": "B1", "values": [{"measurement": "Kd", "setting": "Snu66 peptide-14", "value": 14, "unit": "µM"}]}
